According to patent publication US11229614B2, “Supramolecular hydrogel applications to the carotid bodies to treat hypertension and sleep apnea in obesity” (THE JOHNS HOPKINS UNIVERSITY, priority 2017, dated 2022):
Where two headings read alike, the source gives them in different places.

How the values were obtained:
[1] = humans; cited from earlier work
[2] = tested on: C57BL/6J mice; format: in vivo
Description: Blood pressure telemetry (FIG. 2) and sleep studies in mice. […] Then blood pressure was measured at baseline (Day 0). The leptin osmotic pump was implanted SC to deliver 120 μg/day of the hormone, which increased leptin levels to 40-50 ng/ml which corresponded to plasma leptin levels in severely obese mice. Blood pressure measured after 2 days of leptin infusion (Day 2) followed by removal of the osmotic pump. On Day 5, the carotid artery bifurcation was exposed and co-assembled FTY720-PA filamentous nanostructures were applied bilaterally (5 μg/side). […] The leptin osmotic pump was reinserted on Day 9 and blood pressure was measured after two days of leptin infusion on Day 11. The pump was removed on Day 12 and reinserted on Day 20 followed by blood pressure measurement on Day 22. […] Leptin increased mean arteria blood pressure by 13±6 mm Hg and this effect was abolished by FTY720. […] Allowing 10% attrition rate, it will require 28 male (14 DIO and 14 lean) and 28 female C57BL/6J mice (14 DIO and 14 lean).

[3] = Maximum solubility at pH 7.4; format: physicochemical
[4] = mice; cited from earlier work

| solubility [3] [µM] | Compound | half-life [1] [h] | leptin-induced hypertension ([2]; FTY720 in Matrigel at 0.3 mg/kg/day applied to CB (FIG. 2)) | leptin-induced hypertension ([2]; administered to CB locally) | effect on leptin-induced increase of mean arterial blood pressure ([2]; mouse, in vivo) | half-life [4] [h] | increase of mean arterial blood pressure ([2]; leptin infusion) [mm Hg] |
| --- | --- | --- | --- | --- | --- | --- | --- |
| 81 | CCCCCCCCc1ccc(CCC(N)(CO)CO)cc1.Cl [FTY720, 2-Amino-2-[2-(4-octyl-phenyl)-ethyl]-propane-1,3-diol hydrochloride] | 170 | abolished leptin-induced hypertension | abolished leptin-induced hypertension | abolished | 9 | – |
| – | Leptin: hormone delivered by SC osmotic pump to induce hypertension | – | – | – | – | – | 13±6 |
